Data taken from BindingDB's records for doi:10.1007/bf00168610 (UniversitÄT Heidelberg, 1991).
pKi: −log10 of the molar value. Where “and” joins values, the source holds several entries; their conditions need not be identical. Equal values may be shown once.

Columns and labels:
Adenosine receptor A1 [1] = biological target: T1, Adenosine receptor A1 (Oryctolagus cuniculus, UniProt P34970)
T1 sequence (P34970 whole entry): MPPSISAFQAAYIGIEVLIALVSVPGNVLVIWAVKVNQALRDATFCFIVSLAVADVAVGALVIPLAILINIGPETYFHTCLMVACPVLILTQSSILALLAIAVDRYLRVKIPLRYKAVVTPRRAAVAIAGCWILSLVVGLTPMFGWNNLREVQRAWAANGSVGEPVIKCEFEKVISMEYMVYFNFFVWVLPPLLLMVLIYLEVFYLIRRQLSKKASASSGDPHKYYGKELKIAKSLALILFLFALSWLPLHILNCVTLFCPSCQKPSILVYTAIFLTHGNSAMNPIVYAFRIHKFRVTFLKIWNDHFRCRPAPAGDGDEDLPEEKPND

Adenosine receptor A1 [2] = biological target: T2, Adenosine receptor A1 (Cavia porcellus, UniProt P47745)
T2 sequence (P47745 whole entry): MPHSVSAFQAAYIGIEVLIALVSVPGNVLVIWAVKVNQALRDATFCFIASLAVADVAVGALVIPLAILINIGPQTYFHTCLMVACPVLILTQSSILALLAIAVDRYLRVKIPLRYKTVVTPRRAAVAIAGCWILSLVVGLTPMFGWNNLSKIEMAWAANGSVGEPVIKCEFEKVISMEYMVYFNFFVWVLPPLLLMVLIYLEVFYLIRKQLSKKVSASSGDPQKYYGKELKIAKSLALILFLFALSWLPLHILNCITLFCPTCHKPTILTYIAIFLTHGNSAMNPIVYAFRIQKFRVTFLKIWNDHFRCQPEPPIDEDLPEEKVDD

P2Y purinoceptor 2 = P2Y purinoceptor 2 (Cricetulus griseus, UniProt P58825)
Adenosine receptor A1 [3] = biological target: T3, Adenosine receptor A1 (Rattus norvegicus, UniProt P25099)
T3 sequence (P25099 whole entry): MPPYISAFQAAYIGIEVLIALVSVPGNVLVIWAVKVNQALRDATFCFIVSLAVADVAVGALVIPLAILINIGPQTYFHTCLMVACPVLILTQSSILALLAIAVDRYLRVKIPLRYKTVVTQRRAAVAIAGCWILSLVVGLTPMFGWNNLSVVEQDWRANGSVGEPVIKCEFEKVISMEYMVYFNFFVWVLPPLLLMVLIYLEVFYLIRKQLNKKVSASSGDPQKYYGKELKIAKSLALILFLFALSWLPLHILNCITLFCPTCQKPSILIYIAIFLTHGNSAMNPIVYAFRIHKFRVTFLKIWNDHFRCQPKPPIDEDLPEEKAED

Adenosine receptor A3 = biological target: T4, Adenosine receptor A3 (Ovis aries, UniProt P35342)
T4 sequence (P35342 whole entry): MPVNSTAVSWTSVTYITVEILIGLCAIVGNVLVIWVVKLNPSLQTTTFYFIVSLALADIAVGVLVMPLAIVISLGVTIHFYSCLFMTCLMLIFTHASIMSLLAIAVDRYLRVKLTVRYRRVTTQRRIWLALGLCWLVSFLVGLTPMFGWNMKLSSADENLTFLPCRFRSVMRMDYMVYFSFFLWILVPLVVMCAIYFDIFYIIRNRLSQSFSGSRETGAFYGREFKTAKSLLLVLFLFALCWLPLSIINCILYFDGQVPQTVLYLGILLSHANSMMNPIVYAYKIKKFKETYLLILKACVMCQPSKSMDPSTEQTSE

Adenosine receptor A1 [4] = biological target: T5, Adenosine receptor A1 (Bos taurus, UniProt P28190)
T5 sequence (P28190 whole entry): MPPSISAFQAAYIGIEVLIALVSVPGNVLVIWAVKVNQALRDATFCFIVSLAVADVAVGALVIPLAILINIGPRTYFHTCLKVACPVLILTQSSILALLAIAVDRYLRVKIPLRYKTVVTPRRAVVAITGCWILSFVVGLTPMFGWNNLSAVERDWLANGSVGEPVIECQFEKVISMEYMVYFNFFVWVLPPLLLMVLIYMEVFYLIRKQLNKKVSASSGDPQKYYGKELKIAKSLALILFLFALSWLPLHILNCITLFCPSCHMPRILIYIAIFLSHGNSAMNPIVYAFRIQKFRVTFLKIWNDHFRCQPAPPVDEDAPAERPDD

Sequence of P2Y purinoceptor 2 (P58825 whole entry): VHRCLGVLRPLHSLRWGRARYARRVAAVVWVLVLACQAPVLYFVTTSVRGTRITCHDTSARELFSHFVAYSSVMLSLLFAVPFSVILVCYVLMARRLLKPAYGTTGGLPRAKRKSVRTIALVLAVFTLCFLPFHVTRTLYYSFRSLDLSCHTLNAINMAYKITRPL

pKi (Adenosine receptor A1 [1])	pKi (Adenosine receptor A1 [2])	pKi (P2Y purinoceptor 2)	pKi (Adenosine receptor A1 [3])	pKi (Adenosine receptor A3)	pKi (Adenosine receptor A1 [4])	SMILES
9.35	8.83 and 8.26	9.51	9.31	10.05	10.52	CCCn1c(=O)c2[nH]c(-c3ccc(OCC(=O)NCCN)cc3)nc2n(CCC)c1=O [N-(2-Amino-ethyl)-2-[4-(2,6-dioxo-1,3-dipropyl-2,3,6,9-tetrahydro-1H-purin-8-yl)-phenoxy]-acetamide]
–	–	9.85	–	10.00	10.30	CCCn1c(=O)c2[nH]c(C3CCCC3)nc2n(CCC)c1=O [DPCPX]
8.19	7.58	8.37	8.20	8.54	8.85	Cn1c(=O)c2[nH]c(C3CCCC3)nc2n(C)c1=O [NSC_1917]

SMILES	pKi (Adenosine receptor A1 [1])	pKi (Adenosine receptor A1 [2])	pKi (P2Y purinoceptor 2)	pKi (Adenosine receptor A1 [3])	pKi (Adenosine receptor A3)	pKi (Adenosine receptor A1 [4])
Cn1c(=O)c2[nH]cnc2n(C)c1=O [Theophylline (1,3-dimethylxanthine)]	5.33	–	5.34	–	5.04	–
